ChEMBL document CHEMBL1137024, “Acyl-CoA: cholesterol acyltransferase inhibitory activities of fatty acid amides isolated from Mylabris phalerate Pallas” (Bioorg Med Chem Lett, 2004)

Experiments:
[1] = target: Sterol O-acyltransferase 2 (Homo sapiens, UniProt O75908); test: Inhibitory activity against human Acyl coenzyme A:cholesterol acyltransferase 2
[2] = target: T1, Sterol O-acyltransferase 1 (Rattus norvegicus, UniProt O70536); test: Inhibitory activity against rat liver microsomal Acyl coenzyme A:cholesterol acyltransferase
T1 sequence (O70536 whole entry): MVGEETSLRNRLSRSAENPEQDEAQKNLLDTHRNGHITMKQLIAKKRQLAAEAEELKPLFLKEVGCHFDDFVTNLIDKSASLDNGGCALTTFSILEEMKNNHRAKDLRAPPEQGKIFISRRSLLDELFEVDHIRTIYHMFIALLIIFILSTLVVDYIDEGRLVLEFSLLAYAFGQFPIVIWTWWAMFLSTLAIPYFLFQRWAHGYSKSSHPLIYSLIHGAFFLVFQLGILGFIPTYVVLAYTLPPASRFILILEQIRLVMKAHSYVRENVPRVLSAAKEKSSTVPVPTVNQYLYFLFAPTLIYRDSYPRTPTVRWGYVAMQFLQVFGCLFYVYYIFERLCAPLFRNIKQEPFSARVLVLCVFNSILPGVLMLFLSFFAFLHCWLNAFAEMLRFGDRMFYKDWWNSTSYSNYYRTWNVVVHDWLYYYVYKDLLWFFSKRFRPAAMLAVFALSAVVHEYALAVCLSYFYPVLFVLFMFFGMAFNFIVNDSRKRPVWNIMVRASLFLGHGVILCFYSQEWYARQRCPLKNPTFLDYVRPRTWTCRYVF

[3] = target: T2, Sterol O-acyltransferase 1 (Homo sapiens, UniProt P35610); test: Inhibitory activity against human Acyl coenzyme A:cholesterol acyltransferase 1
T2 sequence (P35610 whole entry): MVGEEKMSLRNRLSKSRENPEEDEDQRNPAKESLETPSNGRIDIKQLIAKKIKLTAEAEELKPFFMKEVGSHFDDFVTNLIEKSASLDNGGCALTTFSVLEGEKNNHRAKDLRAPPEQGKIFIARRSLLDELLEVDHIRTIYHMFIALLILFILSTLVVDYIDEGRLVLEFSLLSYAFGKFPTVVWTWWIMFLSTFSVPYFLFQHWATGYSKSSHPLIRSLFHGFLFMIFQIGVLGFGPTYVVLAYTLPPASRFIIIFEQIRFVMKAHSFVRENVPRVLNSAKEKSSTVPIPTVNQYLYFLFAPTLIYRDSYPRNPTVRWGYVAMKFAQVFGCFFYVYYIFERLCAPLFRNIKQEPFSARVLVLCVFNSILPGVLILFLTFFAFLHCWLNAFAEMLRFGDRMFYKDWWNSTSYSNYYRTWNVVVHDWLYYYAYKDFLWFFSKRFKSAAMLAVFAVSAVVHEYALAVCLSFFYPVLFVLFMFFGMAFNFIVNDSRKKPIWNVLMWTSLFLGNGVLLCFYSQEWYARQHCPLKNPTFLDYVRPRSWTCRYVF

Sequence of Sterol O-acyltransferase 2 (O75908 whole entry, looked up): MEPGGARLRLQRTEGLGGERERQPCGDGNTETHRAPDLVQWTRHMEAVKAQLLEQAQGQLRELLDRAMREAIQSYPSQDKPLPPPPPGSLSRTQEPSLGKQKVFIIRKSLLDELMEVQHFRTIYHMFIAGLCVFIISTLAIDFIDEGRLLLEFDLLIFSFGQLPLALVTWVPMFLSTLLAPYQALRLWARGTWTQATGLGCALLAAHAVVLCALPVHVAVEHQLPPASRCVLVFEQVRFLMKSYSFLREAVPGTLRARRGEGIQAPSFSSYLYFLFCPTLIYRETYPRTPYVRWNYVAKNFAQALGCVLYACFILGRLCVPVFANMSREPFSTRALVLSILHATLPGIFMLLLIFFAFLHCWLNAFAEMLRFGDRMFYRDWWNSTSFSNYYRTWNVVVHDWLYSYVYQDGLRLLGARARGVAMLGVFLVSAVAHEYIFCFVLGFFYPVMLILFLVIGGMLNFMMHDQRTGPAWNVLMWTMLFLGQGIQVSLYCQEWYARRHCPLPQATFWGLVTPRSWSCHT

Row | IC50 [1] | IC50 [2] | IC50 [3] | Structure (SMILES)
1 | > 1000 µM | > 1000 µM | > 1000 µM | CCCCC/C=C\C/C=C\CCCCCCCC(=O)O [LINOLEIC ACID]
2 | > 1000 µM | > 1000 µM | > 1000 µM | CCCCCCCC/C=C\CCCCCCCC(=O)O [OLEIC ACID]

Row | Structure (SMILES) | IC50 [1] | IC50 [2] | IC50 [3]
3 | CC(=O)OC[C@@]1(C)[C@@H]2C[C@H](OC(C)=O)[C@@]3(C)Oc4cc(-c5cccnc5)oc(=O)c4[C@H](O)[C@@H]3[C@@]2(C)CC[C@@H]1OC(C)=O [PYRIPYROPENE A] | – | 0.17 µM | –
